One assay addresses T1, K2P10.1 (TREK-2) (Mus musculus, UniProt Q8BUW1).
T1 construct: expressed in transfected cells; host or cells: Xenopus oocytes
T1 sequence (Q8BUW1 1-535): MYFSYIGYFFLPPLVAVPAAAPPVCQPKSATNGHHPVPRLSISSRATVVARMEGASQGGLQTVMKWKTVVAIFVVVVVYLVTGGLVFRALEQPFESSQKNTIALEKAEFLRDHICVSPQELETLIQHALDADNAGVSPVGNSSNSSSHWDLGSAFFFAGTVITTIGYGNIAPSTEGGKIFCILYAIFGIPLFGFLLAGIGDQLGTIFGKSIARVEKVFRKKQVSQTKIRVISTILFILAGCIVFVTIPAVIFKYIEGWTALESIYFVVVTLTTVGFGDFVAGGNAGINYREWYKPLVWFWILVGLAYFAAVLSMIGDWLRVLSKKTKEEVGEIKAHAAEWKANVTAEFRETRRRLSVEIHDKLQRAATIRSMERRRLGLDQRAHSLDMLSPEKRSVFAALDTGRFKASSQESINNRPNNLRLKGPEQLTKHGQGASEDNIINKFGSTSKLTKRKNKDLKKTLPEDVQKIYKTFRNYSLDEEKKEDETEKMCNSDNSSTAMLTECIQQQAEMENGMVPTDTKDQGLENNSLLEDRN
Kind of assay: Two-electrode voltage clamp, Xenopus oocytes expressing K2P10.1 (TREK-2). The format is cell-based, Murine. As to the method: (§1) FIG. 7 ML67-33 is a selective activator of heat- and mechanosensitive K2P channels. a-f, Exemplar I-V curves showing the effect of ML67-33 on a, K2P10.1 (TREK-2), b, K2P4.1 (TRAAK), c, K2P3.1 (TASK-1), d, K2P9.1 (TASK-3), e, K2P5.1 (TASK-2), and f, K2P18.1 (TRESK) measured in Xenopus oocytes in 2 mM [K^+]o pH 7.4. Currents were elicited by a voltage ramp from −150 to 50 mV, from a holding potential of −80 mV. g, Quantification of the effect of ML67-33 on the indicated channels. Data (mean±s.e., n≧6, N≧2) was normalized to basal channel activity and fitted to the Hill equation. […] Error bars indicate s.e., n≧6, N≧2.
(§2) Murine K2P channels were cloned into pGEMHE/pMO {Bagriantsev, 2011}, IRES-GFP (Invitrogen), or pYES2-MET25 (high copy 2μ, URA3) {Minor, 1999} for expression in oocytes, HEK-293T cells, and yeast, respectively, using standard molecular biology procedures, and verified by DNA sequencing.
(§3) Two-electrode voltage clamp recordings were performed from defolliculated stage V-VI Xenopus oocytes 24-48 hours after injection with 0.015-6.0 ng cRNA, using microelectrodes (0.3-3.0 MΩ) filled with 3M KCl. Data was acquired using the GeneClamp 500B (MDS Analytical Technologies) amplifier controlled by the pClamp software (Molecular Devices), and digitized at 1 kHz using Digidata 1332A (MDS Analytical Technologies). Recording solutions (mM): 2K (96 NaCl, 2 KCl, 1.8 CaCl2, 2 MgCl2), 90K (90 KCl, 8 NaCl, 1.8 CaCl2, 2 MgCl2), were buffered 5 mM HEPES pH 7.4. For K2P recordings, currents we elicited by a 1 second long ramp from −150 to +50 mV from a holding potential of −80 mV (2K), or −100 to +50 mV from a holding potential of 0 mV (90K). For KCNQ2 recordings, currents were elicited by a step protocol from −120 to 60 mV, in 20 mV increments, from a holding potential of −80 mV. Patch-clamp recordings from HEK-293T cells were performed using microelectrodes (2-3 MΩ) filled with 1M KCl. Data was acquired using the Axopatch 200B amplifier controlled by pClamp software, and digitized at 1 kHz using Digidata 1332A. Recording solutions (mM): intracellular (145 KCl, 5 EGTA, 3 MgCl2,) extracellular (150 NaCl, 5 KCl, 3 MgCl2, 1 CaCl2) were buffered with 5 mM HEPES pH 7.2 and 7.4, respectively. Currents were elicited by a 1 second long ramp from −150 to +50 mV from a holding potential of −80 mV. Data were fitted with a modified Hill's equation: I=Imin+(Imax−Imin)/(1+10^((Log EC50−Log [C])*H)), where Imax and Imin are maximal and minimal current values, respectively, EC50 is a half-maximal effective concentration of the compound, and H is the Hill coefficient.
(§4) There are six K2P subgroups {Noel, 2011} (FIG. 11). […]

For a further assay, the target named is T2, K2P3.1 (TASK-1) (Mus musculus, UniProt O35111).
T2 construct: expressed in transfected cells; host or cells: Xenopus oocytes
T2 sequence (O35111 whole entry): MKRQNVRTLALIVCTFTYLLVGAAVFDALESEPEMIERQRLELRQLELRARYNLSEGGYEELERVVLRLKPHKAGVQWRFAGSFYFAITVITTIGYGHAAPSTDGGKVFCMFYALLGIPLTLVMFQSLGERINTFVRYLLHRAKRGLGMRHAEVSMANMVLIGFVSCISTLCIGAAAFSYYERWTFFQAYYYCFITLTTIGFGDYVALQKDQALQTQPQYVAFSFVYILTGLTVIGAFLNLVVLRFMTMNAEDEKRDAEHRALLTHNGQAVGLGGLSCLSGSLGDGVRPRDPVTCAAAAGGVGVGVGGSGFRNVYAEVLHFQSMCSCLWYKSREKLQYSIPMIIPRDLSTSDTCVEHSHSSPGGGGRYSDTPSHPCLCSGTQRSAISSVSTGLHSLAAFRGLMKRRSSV
Kind of assay: Two-electrode voltage clamp, Xenopus oocytes expressing K2P3.1 (TASK-1). The format is cell-based, Murine. The method, then: as §1, §2, §3, §4
A general note: Two-electrode voltage clamp is typically applied to oocytes expressing channels or transporters.

Where “and” joins values, the source holds several entries; their conditions need not be identical. Equal entries are not always repeated.

By EC50 is commonly meant the concentration at which the effect is half-maximal. Low values mean an effect from little substance, high ones a need for much substance. With `CC1(C)c2cc(Cl)ccc2N(CCc2nnn[nH]2)c2ccc(Cl)cc21` [ML67-33, 2,7-dichloro-9,9-dimethyl-10-[2-(1H-tetrazol-5-yl)ethyl]acridine], the “Emax (fold)” value at K2P10.1 (TREK-2) (FIG. 7 legend: at 100 μM) was 11.4±1.8 fold; at K2P3.1 (TASK-1) (at 100 μM (FIG. 7 legend), ** in Table 1) it was 1.1±0.0 fold and 1.1 ± 0.1** fold. The compound further displayed a concentration giving a half-maximal response (EC50) on K2P10.1 (TREK-2) (Xenopus oocytes, 2 mM [K+]o pH 7.4) of 30.2 ± 1.4 µM. Also, the “functional effect / activation (in words)” value at K2P3.1 (TASK-1) (ML67-33 applied at 100 μM, ML67 concentration not stated) is reported as “little or no functional effects”.

Values taken from patent publication US9862684B2, “Modulation of K2P channels” (The Regents of the University of California, priority 2013, dated 2018).
